No end group written: not given here.
How the values were obtained:
[1] = tested on: CT26 cells; assay: Direct cell count, CT26 cells; type: cell-based
[2] = tested on: hepatic adropin RNA; assay: Hepatic adropin RNA levels after adropin injection (qRT-PCR); type: in vivo, mouse
Procedure: FIG. 14 is a vertical bar graph showing the dose effects of a single adropin administration (i.p.) at the indicated doses (0 (naïve), 0.01 mg, 0.05 mg and 0.001 mg) on hepatic adropin RNA levels (measured by qRT-PCR). Each group comprised 4 mice.
FIG. 15 is a vertical bar graph showing the efficacy of different adropin routes of administration on hepatic adropin RNA in naïve mice (measured by qRT-PCR). Adropin was injected at a dose 0.01 mg. Naïve, non-injected; IP, intraperitoneal injection; SC, subcutaneous injection; IV, intravenous injection.
(§1) C57BL/6 mice were given a single injection of adropin at different concentrations and sacrificed at varied times afterward. […] The lower concentration induced higher effect.
The inventors then pursued optimization of adropin administration. With this respect, different doses of adropin were administered to mice and hepatic adropin RNA levels were quantified (FIG. 14). […] Reduction in the dose of the administered adropin led to a reduction in the administered adropin effect.
Further, the inventors examined whether the administration route of the adropin affects the hepatic adropin mRNA levels (FIG. 15).

[3] = tested on: hepatocytes (HepRG cells); assay: XTT assay on normal hepatocytes; type: cell-based; settings: 5×10^4 HepRG cells/well
Procedure: (§2) FIGS. 10A-10C are vertical bar graphs showing the specificity of adropin inhibition on proliferating cancer cells. No detectable effect of adropin treatment was observed (using XTT assay) on normal (A) fibroblasts (1×10^4 HF cells/well), (B) kidney cells (5×10^4 cells/well), and (C) hepatocytes (5×10^4 HepRG cells/well) in-vitro.
(§3) All cell lines were maintained in DMEM medium supplemented with 10% FCS, 1% Penicillin/Streptomycin and 1% L-Glutamine in 10 cm^2 plates in 5% humidified CO2 at 37° C. Twice a week cells were passaged. Detaching was done for MC-38, CT26 and normal cells by incubation with 1 ml trypsin for 2-3 min and then seeded (usually 1:10) in 10 ml DMEM supplemented medium which stopped the enzymatic process of trypsin. EL4 cells are grown in suspension, thus not requiring this stage. […] Cells were counted in a hemocytometer under a light microscope (magnification×10) immediately after the addition of Trypan blue solution (1:1 ratio). […] On the following day, the XTT reaction solution was added to the wells according to the cell proliferation kit (XTT based; Biological Industries, Israel) and the plate was read 2, 3 and 4 hours following, using a Magellan for Infinite F50 (Tecan, Switzerland) microplate reader at 450 nm. […]

[4] = tested on: MC-38 colorectal liver metastases; assay: MC-38 colorectal liver metastases model (intra-splenic cell injection) with adropin injection; type: in vivo, mouse
Procedure: Metastases model—In order to obtain metastases in the liver, a well-documented model was employed using the cancer cell lines derived from C57B1/6 mice—MC-38 or EL-4 cells. The cancer cells were injected intra-splenic into MDR2-Knockout (KO) and C57B1/6 mice at two and five months of age, and after 5 minutes the spleen was removed to prevent the development of a primary tumor in the spleen. Fourteen days later, the mice were euthanized, and their livers were removed in a similar manner to that described above.
Adropin injection—The adropin peptide (corresponding to amino acids at positions 34-76) was purchased from ChinaPeptides Co., Ltd. with a purity of >95%. The peptide was injected to mice according to two protocols. For the first protocol, termed ‘short adropin treatment’, adropin was injected at 450 nmole/kg in saline (80 μl injected), i.p., twice daily, for the five days surrounding the MC-38 CRC cell injection. For the second protocol, termed ‘prolonged adropin treatment’, 450 nmole/kg of adropin was injected i.p. (100 μl injected) once every three days from the morning of MC-38 cell injection throughout the experiment until the mice were sacrificed fourteen days later (a total of five injections).
Formalin-fixed paraffin-embedded tissue slides were stained with hematoxylin-eosin (H&E) staining and analyzed under a microscope using Cellsens Entry software (Olympus, Japan). The number and size of metastases larger than 4,000 μm^2 were recorded. The number of metastases was normalized relatively to the size of the liver sample analyzed.
A synthetic peptide of adropin (34-76 aa, purity: >95%) was then used to validate the findings regarding adropin's role in protecting the liver from metastases. The peptide, or saline as control, was injected (450 nmol/kg/i.p.) to mice during the week of cancer cell injection (2 days before, day of tumor cell injection and the following two days). A significant decrease of over 2.5-fold in the metastases size was observed, in the adropin-injected mice (FIG. 4B).
A further protocol was employed where adropin was injected every 3 days throughout the entire experiment period (14 days), starting from the morning of the cancer cell injection.
The mice were injected every two days with adropin (0.01 or 0.05 mg/i.p. injection) or saline starting from the morning of the MC-38 cell injection until being sacrificed two weeks later.

[5] = tested on: CT26 colorectal cancer cell line; assay: XTT metabolic assay, CT26 cells; type: cell-based; settings: CT26 seeded 5×10^3 cells/well
Procedure: FIGS. 9A-9D are vertical bar graphs showing the inhibitory effect of adropin on colorectal cancer cells.
(§4) All cell lines were maintained in DMEM medium supplemented with 10% FCS, 1% Penicillin/Streptomycin and 1% L-Glutamine in 10 cm^2 plates in 5% humidified CO2 at 37° C. Twice a week cells were passaged. Detaching was done for MC-38, CT26 and normal cells by incubation with 1 ml trypsin for 2-3 min and then seeded (usually 1:10) in 10 ml DMEM supplemented medium which stopped the enzymatic process of trypsin. EL4 cells are grown in suspension, thus not requiring this stage. For the experiments, after the trypsin detachment, 1 ml of cells was transferred into 13 ml medium and then the cells were centrifuged (1,400 rpm, 10 min, room temperature (RT)) and resuspended in 1 ml of fresh medium (for in vitro experiments) or sterile PBS×l (for mouse injections in vivo). Cells were counted in a hemocytometer under a light microscope (magnification×10) immediately after the addition of Trypan blue solution (1:1 ratio). Non-stained cells were considered viable. […] On the following day, the XTT reaction solution was added to the wells according to the cell proliferation kit (XTT based; Biological Industries, Israel) and the plate was read 2, 3 and 4 hours following, using a Magellan for Infinite F50 (Tecan, Switzerland) microplate reader at 450 nm.

[6] = tested on: hepatic adropin protein; assay: Hepatic adropin protein levels after single adropin injection; type: in vivo, mouse; settings: C57BL/6 mice, single i.p. injection, different doses; lasting for two days
Procedure: FIGS. 12A-12B are vertical bar graphs showing the effect of single adropin polypeptide injection on endogenous hepatic adropin RNA (A) and (B) protein levels at the indicated doses and timing following i.p. injection (n represents number of mice per group).
Adropin levels were determined using the ELISA Kit (Cloud-Clone Corp., Texas, USA) for liver or serum mice samples according to the manufacturer's protocol. The results were analyzed using Magellan for Infinite F50 (Tecan, Switzerland).
as §1

[7] = tested on: normal kidney cells; assay: XTT assay on normal kidney cells; type: cell-based; settings: kidney cells 5×10^4 cells/well
Procedure: as §2, §3

[8] = Adropin stability under storage conditions by LC-MS; type: physicochemical
From the text: The inventors then examined the stability of adropin in vitro. For that, the inventors had set up a liquid chromatography mass spectrometry (LC-MS) assay and used it to examine the stability of adropin under different storage conditions (see Table 1). […] Contrary, approximately 50% degradation were observed when the dissolved peptide was stored at a room temperature for one month.

[9] = Adropin stability during incubation with mouse serum (LC-MS); type: in vitro ADME; settings: 24 hours incubation with mouse serum; read-out: adropin level remaining
Procedure: FIG. 11 is a graph showing adropin dynamic stability during incubation with mouse serum as measured with liquid chromatography mass spectrometry (LC-MS).
The next step was to assess the stability of adropin during incubation with human or mouse serum.

[10] = tested on: MC38 cells; assay: Direct cell count, MC38 cells; type: cell-based, murine; settings: all tested seeding concentrations, up to 5×10^4 cells/well; compared with XTT
Procedure: as §4, with “nm. […]” for “nm.”

[11] = tested on: MC-38 (colorectal cancer cell line); assay: XTT cell-proliferation test, MC-38 cells; type: cell-based, murine
Procedure: All cell lines were maintained in DMEM medium supplemented with 10% FCS, 1% Penicillin/Streptomycin and 1% L-Glutamine in 10 cm^2 plates in 5% humidified CO2 at 37° C. Twice a week cells were passaged. Detaching was done for MC-38, CT26 and normal cells by incubation with 1 ml trypsin for 2-3 min and then seeded (usually 1:10) in 10 ml DMEM supplemented medium which stopped the enzymatic process of trypsin. EL4 cells are grown in suspension, thus not requiring this stage. For the experiments, after the trypsin detachment, 1 ml of cells was transferred into 13 ml medium and then the cells were centrifuged (1,400 rpm, 10 min, room temperature (RT)) and resuspended in 1 ml of fresh medium (for in vitro experiments) or sterile PBS×l (for mouse injections in vivo). Cells were counted in a hemocytometer under a light microscope (magnification×10) immediately after the addition of Trypan blue solution (1:1 ratio). Non-stained cells were considered viable. For in-vivo mouse injections, the cells were diluted in sterile PBS xl to a final concentration of 5×10^4 for MC-38 cells or 5×10^5 for EL-4 cells per 100 μl. For XTT in vitro experiments, the cells were seeded in a 96-well plate (100 μl per well) in the morning and in the afternoon (once the cells adhered) the medium was changed according to the treatment (DMEM, Adropin 25 ng/ml, Adropin 50 ng/ml or Adropin 100 ng/ml). On the following day, the XTT reaction solution was added to the wells according to the cell proliferation kit (XTT based; Biological Industries, Israel) and the plate was read 2, 3 and 4 hours following, using a Magellan for Infinite F50 (Tecan, Switzerland) microplate reader at 450 nm.
To test adropin's direct effects on MC-38 cells, XTT cell-proliferation tests were performed with adropin added to the medium at different concentrations (25-100 ng/ml).

[12] = tested on: normal fibroblasts (HF cells); assay: XTT assay on normal fibroblasts; type: cell-based; settings: 1×10^4 HF cells/well
Procedure: as §2, §3

[13] = adropin 450 nmol/kg i.p., short treatment, vs saline
[14] = adropin 0.01 or 0.05 mg/i.p. injection every two days for two weeks, C57BL/6 mice
[15] = prolonged adropin treatment, 450 nmol/kg i.p. every 3 days for 14 days

Sequence: CHSRSADVDSLSESSPNSSPGPCPEKAPPPQKPSHEGSYLLQP (cysteines drawn unpaired) [adropin]
- inhibition by direct cell counts [1]: same trends of inhibition
- hepatic adropin RNA levels ([2]; C57BL/6 mice, single i.p. injection, different doses, lasting for two days): large increase
- hepatic adropin mRNA levels ([2]; intraperitoneal injection, 0.01 mg, naïve mice): greatest increase
- hepatic adropin mRNA levels ([2]; intravenous injection, 0.01 mg, naïve mice): substantial increase
- hepatic adropin mRNA levels ([2]; single i.p. dose of 0.001 mg): did not induce such an effect
- hepatic adropin mRNA levels ([2]; single i.p. dose of 0.005 mg): some increase
- hepatic adropin mRNA levels ([2]; single i.p. dose of 0.01 mg): substantially increase
- hepatic adropin mRNA levels ([2]; subcutaneous injection, 0.01 mg, naïve mice): did not seem to increase
- effect of adropin treatment on normal cells (XTT) [3]: No detectable effects
- BrdU levels in the hepatic parenchyma [4, 13]: no differences
- number of BrdU stained cells in the tumors [4, 13]: decrease in the number of BrdU stained cells
- number of hepatic metastases [4, 14]: significantly improved effects
- size of hepatic metastases [4, 14]: significantly improved effects
- number of liver metastases [4, 15]: reduced upon adropin injections (marginally significant)
- size of liver metastases [4, 15]: reduced upon adropin injections (marginally significant)
- decrease in the metastases size ([4]; short adropin treatment, 450 nmol/kg i.p., 2 days before, day of and two days after MC-38 cell injection, vs saline): over 2.5 fold
- inhibition of proliferation (XTT metabolic assay, FIG. 9C) [5]: significant inhibition
- hepatic adropin protein levels [6]: large increase
- effect of adropin treatment on normal cells (XTT) [7]: No detectable effects
- Concentration obtained by LC-MS ([8]; 4° C. for 1 month): 84 ng/mL
- Concentration obtained by LC-MS ([8]; Freeze/Thaw cycle × 3 (−20° C. to RT once a week)): 92 ng/mL
- Concentration obtained by LC-MS ([8]; Room temperature (RT) for 1 month): 55 ng/mL
- degradation of dissolved peptide ([8]; room temperature for one month): approximately 50%
- Concentration obtained by LC-MS ([8]; −20° C. for 1 month): 95 ng/mL
- stability dissolved in saline ([8]; −20° C. or −80° C., up to one month): highly stable
- Concentration obtained by LC-MS ([8]; −80° C. and then 4° C. for 1 week): 99 ng/mL
- Concentration obtained by LC-MS ([8]; −80° C. and then RT for 1 week): 94 ng/mL
- Concentration obtained by LC-MS ([8]; −80° C. and then −20° C. for 1 week): 100 ng/mL
- Concentration obtained by LC-MS ([8]; −80° C. for 1 month): 95 ng/mL
- remaining at 24 h [9]: 55%
- inhibitory effect on the number of cells (direct cell count) [10]: even higher inhibitory effect
- inhibition of proliferation (XTT metabolic assay, FIG. 9A) ([11]; MC38 seeded 5×10^3 cells/well): significant inhibition
- reduction in cell number (XTT) ([11]; adropin 100 ng/ml, seeded 1×10^3 cells/well): significant reduction in cell number
- reduction in cell number (XTT) ([11]; adropin 100 ng/ml, seeded 5×10^3 cells/well): significant reduction in cell number
- proliferation levels (XTT) ([11]; adropin 25-100 ng/ml in medium): decrease in the proliferation levels of the colorectal cancer cells in a dose dependent manner
- reduction in cell number (XTT) ([11]; adropin 25 or 100 ng/ml, seeded 5×10^4 cells/well): No significant reduction
- effect of adropin treatment on normal cells (XTT) [12]: No detectable effects

From US11246912B2, “Methods for treating and diagnosing metastatic liver cancer” (HADASIT MEDICAL RESEARCH SERVICES AND DEVELOPMENT LTD., priority 2017, dated 2022)
